Reference: patent publication US12285403B2, “A2-73 as a therapeutic for insomnia, anxiety and agitation” (Anavex Life Sciences Corp., priority 2016, dated 2025)

How the values were obtained:
Assay type in all cases: in vivo, human
[1] = test system: mild-to-moderate Alzheimer's disease patients; assay: MMSE (Mini-Mental State Examination), Phase 2a study; settings: over 31 weeks; for MMSE scores: oral daily 10 mg to 50 mg, FIG. 1
Source text: Although the present invention calls for methods of treating insomnia, some primary sleep disorders, such as circadian rhythm disorders, advanced sleep phase disorder also termed sleep onset insomnia, mid-nocturnal insomnia, early morning insomnia, hyper insomnia, trouble staying asleep, jet lag, narcolepsy, non-24-hour sleep-wake syndrome, include insomnia as a component of the disorder. Thus, the term “insomnia” should be understood to also include the insomnia component of these disorders. • Aβ—Amyloid beta is abbreviated as Aβ. • AD—Alzheimer's disease is abbreviated as AD. • ADCS-ADL—Alzheimer's Disease Cooperative Study Activities of Daily Living Inventory is abbreviated as ADCS-ADL. • Cogstate tasks—Cogstate tasks refers to Cogstate cognitive tests (Cogstate Alzheimer's Battery) using visual and verbal stimuli to ensure assessment. These tests assess cognitive function in adults with mild cognitive impairment and clinically-diagnosed Alzheimer's disease. The test is culture-neutral and not limited by a subject or participant's level of education. A Cogstate battery comprises a number of individual tests—each designed to test a specific area of cognition. When a number of these individual tests are put together to form a test battery, a more complete picture of a person's cognitive state can be defined. • DPZ—Donepezil is abbreviated as DPZ. • EEG/ERP—EEG/ERP is a reference to ERP measured via EEG. • ERP—Event-related potential is abbreviated as ERP. • HAM-D—Hamilton Depression Rating Scale is abbreviated as HAM-D. • MCI—Mild cognitive impairment is abbreviated as MCI. • MMSE—MMSE refers to the Mini-Mental State Examination (MMSE) or Folstein test. This test is a 30-point questionnaire that is used extensively in clinical and research settings to measure cognitive impairment. • SWS—Slow-wave sleep is abbreviated as SWS. • WASO.—Waking after sleep onset is abbreviated WASO.
Efficacy data is presented through 31 week from the randomized (into different treatment regimens) open-label study with ANAVEX 2-73 oral daily dosing ranging from 10 mg to 50 mg. […]

[2] = Systolic blood pressure monitored over the first 25 days of dosing in AD subjects
Description: An additional benefit of the therapeutic regimen disclosed herein is the beneficial control of systolic blood pressure in AD subjects taking daily oral dosages of A2-73 of from about 10 mg to about 50 mg. Systolic blood pressure was monitored over the first 25 days of dosing. A1-41 and A19-144 are similarly useful therapeutics.

[3] = test system: insomnia, anxiety or agitation; assay: Single-patient therapy Examples 1-10 (insomnia, anxiety, agitation)
Description: A person presents as suffering from maintenance insomnia for one year. They are started on oral A2-73 at 10 mg/day. […] They are currently maintained on 10 mg of A2-73 and is sleeping well. A person presents with anxiety of three years' duration. They are administered A2-73 at 20 mg oral per day every other day. […] They are maintained on this dosing schedule for 60 days. […] They are treated with 30 mg A2-73 oral daily for 30 days. […] They are currently maintained at that dosage and is not anxious. A person presents with MCI and reports maintenance insomnia for one year. They are started on oral A1-41 at 10 mg/day. […] They are currently maintained on 10 mg of A1-41 and is sleeping well. The patient is a person with diagnosed AD and reported anxiety of three years' duration. They are administered A19-144 at 20 mg oral per day every day for 90 days. […] They are chronically maintained on this dosing schedule. A person diagnosed with mild cognitive impairment presents as suffering from maintenance insomnia for one year. They are started on oral A2-73 at 50 mg/day. […] They are currently maintained on 50 mg of A2-73 daily and is sleeping well. A person diagnosed with Alzheimer's disease presents with insomnia/WASO and agitation and a systolic blood pressure of 145 mm Hg. They are started on oral A2-73 at 30 mg/day. […] They are also less agitated. Their results on all cognitive tests and HAM-D improve. They are currently maintained on 30 mg of A2-73 daily. A person diagnosed with Alzheimer's disease presents with insomnia/WASO and agitation. They are started on oral A2-73 at 100 mg/day. […] They are also less agitated. Their results on all cognitive tests and HAM-D improve. They are currently maintained on 100 mg of A2-73 every other day. A person diagnosed with Alzheimer's disease presents with insomnia/WASO and agitation. They are started on oral A19-144 at 50 mg/day. […] They are also less agitated. Their results on all cognitive tests and HAM-D improve. They are currently maintained on 50 mg of A19-144 daily. A person diagnosed with Alzheimer's disease presents with insomnia/WASO and agitation. They are started on oral A1-41 at 30 mg/day. […] They are also less agitated. Their results on all cognitive tests and HAM-D improve. They are currently maintained on 30 mg of A1-41 daily.

[4] = Example 7: oral 30 mg/day, 30 days
[5] = Example 8: oral 100 mg/day, 30 days

SMILES: CN(C)CC1CCOC1(c1ccccc1)c1ccccc1.Cl (centres unmarked) [A2-73, tetrahydro-N,N-dimethyl-2,2-diphenyl-3-furanmethanamine hydrochloride]
- MMSE scores ([1]; hydrochloride): maintained at the same level
- MMSE scores ([1]; listed as ANAVEX 2-73, hydrochloride): preserves average MMSE and ADCS-ADL scores
- MMSE score, ANAVEX 2-73 alone vs ANAVEX 2-73 with DPZ (donepezil) ([1]; exploratory analysis, FIG. 5): no notable difference
- Change in mean systolic BP, baseline to Day 25 ([2]; Hypertension Stage 1: 140-159 mm Hg): −16 mm Hg
- Day 25 Mean systolic BP ±SD ([2]; Hypertension Stage 1: 140-159 mm Hg, baseline 145 ± 3): 129 ± 12 mm Hg
- Change in mean systolic BP, baseline to Day 25 ([2]; Hypertension Stage 2: 160-179 mm Hg): −22 mm Hg
- Day 25 Mean systolic BP ±SD ([2]; Hypertension Stage 2: 160-179 mm Hg, baseline 170 ± 8): 148 ± 19 mm Hg
- Change in mean systolic BP, baseline to Day 25 ([2]; Hypertensive crisis >180 mm Hg): −27 mm Hg
- Day 25 Mean systolic BP ±SD ([2]; Hypertensive crisis >180 mm Hg, baseline 185 ± 0): 159 ± 43 mm Hg
- Change in mean systolic BP, baseline to Day 25 ([2]; Pre Hypertension 120-139 mm Hg): −9 mm Hg
- Day 25 Mean systolic BP ±SD ([2]; Pre Hypertension 120-139 mm Hg, baseline 131 ± 6): 122 ± 15 mm Hg
- Change in mean systolic BP, baseline to Day 25 ([2]; baseline classification <120 mm Hg): 8 mm Hg
- Day 25 Mean systolic BP ±SD ([2]; baseline classification <120 mm Hg, baseline 115 ± 2, oral daily 10-50 mg): 123 ± 11 mm Hg
- Systolic blood pressure in subjects with high-normal systolic blood pressure ([2]; first 25 days of dosing): rose
- Systolic blood pressure in hypertensive subjects ([2]; first 25 days of dosing, greater reduction for increasingly hypertensive subjects): significantly reduced
- Sleep at follow up (maintenance insomnia) ([3]; Example 1: person, oral 10 mg/day, 30 days): sleeping well
- Anxiety ([3]; Example 2: person, 20 mg oral every other day, after two days of dosing): Resolution of the anxiety
- Clinical evaluation of agitation ([3]; Example 3: person, 30 mg oral daily for 30 days): normal affect without agitation
- Sleep at follow up (maintenance insomnia) ([3]; Example 6: person with MCI, oral 50 mg/day, 30 days): sleeping well
- Agitation at follow up [3, 4]: less agitated
- Results on all cognitive tests and HAM-D [3, 4]: improve
- Systolic BP at follow up ([3]; Example 7: oral 30 mg/day, 30 days, 145 mm Hg at presentation): 129 mm Hg
- Sleep at follow up (insomnia/WASO) ([3]; Example 7: person with AD, oral 30 mg/day, 30 days): sleeping well through the night
- Agitation at follow up [3, 5]: less agitated
- Results on all cognitive tests and HAM-D [3, 5]: improve
- Sleep at follow up (insomnia/WASO) ([3]; Example 8: person with AD, oral 100 mg/day, 30 days): sleeping well through the night
